PubChem BioAssay AID2060907 (Molecular Pharmacology Branch, DTP, NCI, 2025)

System: 388556-164-R-J1-PDC complex spheroid viability
Experiment: Anticancer human tumor 388556-164-R-J1-PDC patient-derived colon adenocarcinoma cell line growth inhibition [RAS]
Settings: for IC50: curve of first compound; for viability, T/C: stronger effect = lower value; active means viability on the fitted dose curve at most 10% of control; inactive means the rest
In short: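 Multi-cell-type spheroids: tumor cells plus HUVEC endothelial cells and mesenchymal stem cells. RAS-pathway inhibitors were combined with targeted agents, each dosed in half-log steps down from clinical Cmax, or from 10 microM when Cmax was unknown.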
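Further: spheroids exposed to compound for 7 days before readout.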
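Wherever viability, T/C is given: 100% = DMSO vehicle control luminescence.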

CC1(C)CCC(Nc2ncc(C(F)(F)F)c(-c3c[nH]c4c(P(C)(C)=O)c(C#N)ccc34)n2)CN1 (stereo unspecified) + C=CC(=O)N1CCN(c2nc(OCC3CCCN3C)nc3c(F)c(-c4nc(N)cc(C)c4C(F)(F)F)c(Cl)cc23)C(C)C1
> 0.3 µM: IC50 (second compound 0.00316 µM) | IC50 (second compound 0.01 µM) | IC50 (second compound 0.0316 µM) | IC50 (second compound 0.1 µM) | IC50 (second compound 0.316 µM) | IC50 (second compound 1 µM)
inactive: viability, T/C (second compound 0.00316 µM, first compound 0.000949 µM) 102% | viability, T/C (second compound 0.00316 µM, first compound 0.003 µM) 101% | viability, T/C (second compound 0.00316 µM, first compound 0.00949 µM) 97% | viability, T/C (second compound 0.00316 µM, first compound 0.03 µM) 85% | viability, T/C (second compound 0.00316 µM, first compound 0.0949 µM) 95.5% | viability, T/C (second compound 0.00316 µM, first compound 0.3 µM) 88.1% | viability, T/C (second compound 0.01 µM, first compound 0.000949 µM) 101% | viability, T/C (second compound 0.01 µM, first compound 0.003 µM) 95.7% | viability, T/C (second compound 0.01 µM, first compound 0.00949 µM) 93.7% | viability, T/C (second compound 0.01 µM, first compound 0.03 µM) 99.7% | viability, T/C (second compound 0.01 µM, first compound 0.0949 µM) 89.2% | viability, T/C (second compound 0.01 µM, first compound 0.3 µM) 87.5% | viability, T/C (second compound 0.0316 µM, first compound 0.000949 µM) 102% | viability, T/C (second compound 0.0316 µM, first compound 0.003 µM) 100% | viability, T/C (second compound 0.0316 µM, first compound 0.00949 µM) 89.8% | viability, T/C (second compound 0.0316 µM, first compound 0.03 µM) 103% | viability, T/C (second compound 0.0316 µM, first compound 0.0949 µM) 97.8% | viability, T/C (second compound 0.0316 µM, first compound 0.3 µM) 96.2% | viability, T/C (second compound 0.1 µM, first compound 0.000949 µM) 98.4% | viability, T/C (second compound 0.1 µM, first compound 0.003 µM) 99.8% | viability, T/C (second compound 0.1 µM, first compound 0.00949 µM) 96.8% | viability, T/C (second compound 0.1 µM, first compound 0.03 µM) 84.7% | viability, T/C (second compound 0.1 µM, first compound 0.0949 µM) 99.6% | viability, T/C (second compound 0.1 µM, first compound 0.3 µM) 87.8% | viability, T/C (second compound 0.316 µM, first compound 0.000949 µM) 110% | viability, T/C (second compound 0.316 µM, first compound 0.003 µM) 97.6% | viability, T/C (second compound 0.316 µM, first compound 0.00949 µM) 102% | viability, T/C (second compound 0.316 µM, first compound 0.03 µM) 95.7% | viability, T/C (second compound 0.316 µM, first compound 0.0949 µM) 94.1% | viability, T/C (second compound 0.316 µM, first compound 0.3 µM) 92.4% | viability, T/C (second compound 1 µM, first compound 0.000949 µM) 91.1% | viability, T/C (second compound 1 µM, first compound 0.003 µM) 105% | viability, T/C (second compound 1 µM, first compound 0.00949 µM) 105% | viability, T/C (second compound 1 µM, first compound 0.03 µM) 104% | viability, T/C (second compound 1 µM, first compound 0.0949 µM) 94.9% | viability, T/C (second compound 1 µM, first compound 0.3 µM) 85%

C[C@@H](NC(=O)c1ncnc(N)c1Cl)c1ncc(C(=O)Nc2cc(C(F)(F)F)c(Cl)cn2)s1 + CCn1c(-c2cccnc2C(C)OC)c2c3cc(ccc31)N1CCOC(CC(NC(=O)C(C(C)C)N(C)C(=O)C3(F)CCN(C(=O)C#CC(C)(C)N(C)C)CC3)C(=O)N3CCCC(N3)C(=O)OCC(C)(C)C2)C1
> 10 µM: IC50 (second compound 0.000949 µM) | IC50 (second compound 0.003 µM) | IC50 (second compound 0.00949 µM) | IC50 (second compound 0.03 µM) | IC50 (second compound 0.0949 µM) | IC50 (second compound 0.3 µM)
inactive: viability, T/C (second compound 0.000949 µM, first compound 0.0316 µM) 113% | viability, T/C (second compound 0.000949 µM, first compound 0.1 µM) 113% | viability, T/C (second compound 0.000949 µM, first compound 0.316 µM) 115% | viability, T/C (second compound 0.000949 µM, first compound 1 µM) 123% | viability, T/C (second compound 0.000949 µM, first compound 3.16 µM) 117% | viability, T/C (second compound 0.000949 µM, first compound 10 µM) 94.7% | viability, T/C (second compound 0.003 µM, first compound 0.0316 µM) 117% | viability, T/C (second compound 0.003 µM, first compound 0.1 µM) 102% | viability, T/C (second compound 0.003 µM, first compound 0.316 µM) 119% | viability, T/C (second compound 0.003 µM, first compound 1 µM) 108% | viability, T/C (second compound 0.003 µM, first compound 3.16 µM) 121% | viability, T/C (second compound 0.003 µM, first compound 10 µM) 96.7% | viability, T/C (second compound 0.00949 µM, first compound 0.0316 µM) 105% | viability, T/C (second compound 0.00949 µM, first compound 0.1 µM) 109% | viability, T/C (second compound 0.00949 µM, first compound 0.316 µM) 113% | viability, T/C (second compound 0.00949 µM, first compound 1 µM) 108% | viability, T/C (second compound 0.00949 µM, first compound 3.16 µM) 123% | viability, T/C (second compound 0.00949 µM, first compound 10 µM) 105% | viability, T/C (second compound 0.03 µM, first compound 0.0316 µM) 113% | viability, T/C (second compound 0.03 µM, first compound 0.1 µM) 102% | viability, T/C (second compound 0.03 µM, first compound 0.316 µM) 102% | viability, T/C (second compound 0.03 µM, first compound 1 µM) 109% | viability, T/C (second compound 0.03 µM, first compound 3.16 µM) 117% | viability, T/C (second compound 0.03 µM, first compound 10 µM) 91.1% | viability, T/C (second compound 0.0949 µM, first compound 0.0316 µM) 93.4% | viability, T/C (second compound 0.0949 µM, first compound 0.1 µM) 115% | viability, T/C (second compound 0.0949 µM, first compound 0.316 µM) 110% | viability, T/C (second compound 0.0949 µM, first compound 1 µM) 119% | viability, T/C (second compound 0.0949 µM, first compound 3.16 µM) 113% | viability, T/C (second compound 0.0949 µM, first compound 10 µM) 90.7% | viability, T/C (second compound 0.3 µM, first compound 0.0316 µM) 87.3% | viability, T/C (second compound 0.3 µM, first compound 0.1 µM) 108% | viability, T/C (second compound 0.3 µM, first compound 0.316 µM) 99.6% | viability, T/C (second compound 0.3 µM, first compound 1 µM) 104% | viability, T/C (second compound 0.3 µM, first compound 3.16 µM) 115% | viability, T/C (second compound 0.3 µM, first compound 10 µM) 88%

CC(=O)OC12COC1CC(O)C1(C)C(=O)C(O)C3=C(C)C(OC(=O)C(O)C(NC(=O)OC(C)(C)C)c4ccccc4)CC(O)(C(OC(=O)c4ccccc4)C21)C3(C)C (stereo unspecified) + C=CC(=O)N1CCN(c2nc(OCC3CCCN3C)nc3c(F)c(-c4nc(N)cc(C)c4C(F)(F)F)c(Cl)cc23)C(C)C1
> 10 µM: IC50 (second compound 0.00316 µM) | IC50 (second compound 0.01 µM) | IC50 (second compound 0.0316 µM) | IC50 (second compound 0.1 µM) | IC50 (second compound 0.316 µM) | IC50 (second compound 1 µM)
inactive: viability, T/C (second compound 0.00316 µM, first compound 0.0316 µM) 88.1% | viability, T/C (second compound 0.00316 µM, first compound 0.1 µM) 80.7% | viability, T/C (second compound 0.00316 µM, first compound 0.316 µM) 77% | viability, T/C (second compound 0.00316 µM, first compound 1 µM) 75.7% | viability, T/C (second compound 0.00316 µM, first compound 3.16 µM) 74.6% | viability, T/C (second compound 0.00316 µM, first compound 10 µM) 71.2% | viability, T/C (second compound 0.01 µM, first compound 0.0316 µM) 82.8% | viability, T/C (second compound 0.01 µM, first compound 0.1 µM) 78.8% | viability, T/C (second compound 0.01 µM, first compound 0.316 µM) 70.5% | viability, T/C (second compound 0.01 µM, first compound 1 µM) 80.3% | viability, T/C (second compound 0.01 µM, first compound 3.16 µM) 79.4% | viability, T/C (second compound 0.01 µM, first compound 10 µM) 71.8% | viability, T/C (second compound 0.0316 µM, first compound 0.0316 µM) 84.4% | viability, T/C (second compound 0.0316 µM, first compound 0.1 µM) 83.4% | viability, T/C (second compound 0.0316 µM, first compound 0.316 µM) 84.7% | viability, T/C (second compound 0.0316 µM, first compound 1 µM) 76.9% | viability, T/C (second compound 0.0316 µM, first compound 3.16 µM) 76% | viability, T/C (second compound 0.0316 µM, first compound 10 µM) 71.3% | viability, T/C (second compound 0.1 µM, first compound 0.0316 µM) 78.3% | viability, T/C (second compound 0.1 µM, first compound 0.1 µM) 69.5% | viability, T/C (second compound 0.1 µM, first compound 0.316 µM) 72.4% | viability, T/C (second compound 0.1 µM, first compound 1 µM) 74% | viability, T/C (second compound 0.1 µM, first compound 3.16 µM) 78.4% | viability, T/C (second compound 0.1 µM, first compound 10 µM) 73.2% | viability, T/C (second compound 0.316 µM, first compound 0.0316 µM) 78.6% | viability, T/C (second compound 0.316 µM, first compound 0.1 µM) 81.4% | viability, T/C (second compound 0.316 µM, first compound 0.316 µM) 79.1% | viability, T/C (second compound 0.316 µM, first compound 1 µM) 74.5% | viability, T/C (second compound 0.316 µM, first compound 3.16 µM) 72.7% | viability, T/C (second compound 0.316 µM, first compound 10 µM) 76.6% | viability, T/C (second compound 1 µM, first compound 0.0316 µM) 87.6% | viability, T/C (second compound 1 µM, first compound 0.1 µM) 79.3% | viability, T/C (second compound 1 µM, first compound 0.316 µM) 74.9% | viability, T/C (second compound 1 µM, first compound 1 µM) 82.8% | viability, T/C (second compound 1 µM, first compound 3.16 µM) 76% | viability, T/C (second compound 1 µM, first compound 10 µM) 70.5%
